In the supplement of paper PMC10307832:

compound: Cn1nnc2c(C(N)=O)ncn2c1=O [Temozolomide] + Nc1nc2[nH]cc(CCc3ccc(C(=O)N[C@@H](CCC(=O)O)C(=O)O)cc3)c2c(=O)[nH]1 [Pemetrexed] (partner 0.2 µM); assay: relative viability (nuclei count vs DMSO), 5 days (fraction); higher = more cells survive; settings: first compound 0.2 µM
Method in brief: (§1)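 Values are medians from duplicate plates. Each reflects relative viability, defined as the nuclei count of treated wells over that of vehicle wells. Lung cancer cell lines in 1536-well plates were pin-tool dosed one day after seeding with one drug alone or with a fixed anchor-drug dose plus five library-drug doses (not always all listed) in √10 steps, then fixed, stained and imaged at 4× after 5 days.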

| Cell Line | relative viability |
| --- | --- |
| NCI-H2228 | 0.383 |
| NCI-H2347 | 0.466 |
| NCI-H2405 | 1.08 |
| NCI-H3122 | 0.187 |
| PC-3 [JPC-3] | 1.22 |
| PC-14 | 0.138 |
| RERF-LC-KJ | 0.484 |
| SK-LU-1 | 1.06 |
| SK-MES-1 | 1.01 |
| SW 1573 | 0.907 |
| UMC-11 | 0.758 |

same assay, conditions: first compound 0.6325 µM

| Cell Line | relative viability |
| --- | --- |
| NCI-H2228 | 0.349 |
| NCI-H2347 | 0.447 |
| NCI-H2405 | 1.03 |
| NCI-H3122 | 0.205 |
| PC-3 [JPC-3] | 1.13 |
| PC-14 | 0.12 |
| RERF-LC-KJ | 0.507 |
| SK-LU-1 | 1.01 |
| SK-MES-1 | 0.911 |
| SW 1573 | 0.833 |
| UMC-11 | 0.712 |

same assay, conditions: first compound 2 µM

| Cell Line | relative viability |
| --- | --- |
| NCI-H2228 | 0.348 |
| NCI-H2347 | 0.429 |
| NCI-H2405 | 1.14 |
| NCI-H3122 | 0.188 |
| PC-3 [JPC-3] | 1.16 |
| PC-14 | 0.138 |
| RERF-LC-KJ | 0.486 |
| SK-LU-1 | 0.875 |
| SK-MES-1 | 0.975 |
| SW 1573 | 0.845 |
| UMC-11 | 0.835 |

same assay, conditions: first compound 6.325 µM

| Cell Line | relative viability |
| --- | --- |
| NCI-H2228 | 0.266 |
| NCI-H2347 | 0.426 |
| NCI-H2405 | 1.03 |
| NCI-H3122 | 0.196 |
| PC-3 [JPC-3] | 1.06 |
| PC-14 | 0.145 |
| RERF-LC-KJ | 0.464 |
| SK-LU-1 | 0.495 |
| SK-MES-1 | 0.92 |
| SW 1573 | 0.867 |
| UMC-11 | 0.805 |

same assay, conditions: first compound 20 µM

| Cell Line | relative viability |
| --- | --- |
| NCI-H2228 | 0.352 |
| NCI-H2347 | 0.461 |
| NCI-H2405 | 0.965 |
| NCI-H3122 | 0.193 |
| PC-3 [JPC-3] | 0.458 |
| PC-14 | 0.14 |
| RERF-LC-KJ | 0.461 |
| SK-LU-1 | 0.522 |
| SK-MES-1 | 0.866 |
| SW 1573 | 0.846 |
| UMC-11 | 0.588 |

compound: Cn1nnc2c(C(N)=O)ncn2c1=O [Temozolomide] + COc1cc2c(Oc3ccc(NC(=O)C4(C(=O)Nc5ccc(F)cc5)CC4)cc3F)ccnc2cc1OCCCN1CCOCC1 [Foretinib] (partner 0.25 µM); assay: as above; settings: first compound 0.2 µM
Method in brief: as §1

| Cell Line | relative viability |
| --- | --- |
| NCI-H2228 | 1.05 |
| NCI-H2347 | 1.11 |
| NCI-H2405 | 0.992 |
| NCI-H3122 | 0.915 |
| PC-3 [JPC-3] | 1.11 |
| PC-14 | 1.07 |
| RERF-LC-KJ | 0.888 |
| SK-LU-1 | 0.954 |
| SK-MES-1 | 0.972 |
| SW 1573 | 0.861 |
| UMC-11 | 1.11 |

same assay, conditions: first compound 0.6325 µM

| Cell Line | relative viability |
| --- | --- |
| NCI-H2228 | 1.05 |
| NCI-H2347 | 1.03 |
| NCI-H2405 | 1.07 |
| NCI-H3122 | 0.924 |
| PC-3 [JPC-3] | 1.03 |
| PC-14 | 0.98 |
| RERF-LC-KJ | 0.928 |
| SK-LU-1 | 0.849 |
| SK-MES-1 | 1.05 |
| SW 1573 | 0.915 |
| UMC-11 | 1.06 |

same assay, conditions: first compound 2 µM

| Cell Line | relative viability |
| --- | --- |
| NCI-H2228 | 0.854 |
| NCI-H2347 | 1.42 |
| NCI-H2405 | 1.09 |
| NCI-H3122 | 1.07 |
| PC-3 [JPC-3] | 0.998 |
| PC-14 | 1.03 |
| RERF-LC-KJ | 0.875 |
| SK-LU-1 | 0.585 |
| SK-MES-1 | 1.09 |
| SW 1573 | 0.79 |
| UMC-11 | 1.16 |

same assay, conditions: first compound 6.325 µM

| Cell Line | relative viability |
| --- | --- |
| NCI-H2228 | 0.691 |
| NCI-H2347 | 0.773 |
| NCI-H2405 | 1.01 |
| NCI-H3122 | 1 |
| PC-3 [JPC-3] | 1.03 |
| PC-14 | 1.01 |
| RERF-LC-KJ | 0.936 |
| SK-LU-1 | 0.444 |
| SK-MES-1 | 0.892 |
| SW 1573 | 0.725 |
| UMC-11 | 0.872 |

same assay, conditions: first compound 20 µM

| Cell Line | relative viability |
| --- | --- |
| NCI-H2228 | 0.961 |
| NCI-H2347 | 0.982 |
| NCI-H2405 | 0.994 |
| NCI-H3122 | 0.946 |
